Results from patent US9943599B2, “Therapeutic applications of calcium electroporation to effectively induce tumor necrosis” (Herlev Hospital, priority 2011, dated 2018).

What was measured:
DC-3F cells = assay: Calcium electroporation with two calcium sources, MTT assay; assay type: cell-based, Chinese hamster; conditions: 1 mM, 8 pulses, 0-1.6 kV/cm; MTT 1 day after treatment
Protocol: DC-3F cells were electroporated as described in example 1 with 1 mM calcium chloride (prepared by SAD, Denmark) or 1 mM calcium glubionate (Sandoz, Holzkirchen, Germany). The calcium concentration was chosen based on the experiment described in example 1 where 1 mM calcium is the lowest concentration inducing high cell death. The cells were electroporated with 8 pulses of […] at 1 Hz and increasing electric field (0-1.6 kV/cm). After 20 min at 37° C. and 5% CO2 cells were diluted in RPMI 1640 culture medium with 10% fetal calf serum and penicillin-streptomycin and seeded in 96-well plates at a concentration of 3.1×10^4 cells/100 μl.

[1] = system: DC-3F, K-562 and Lewis Lung Carcinoma cells; assay: In vitro electroporation, MTT viability assay; assay type: cell-based, Chinese hamster, human, murine; conditions: electroporated; data not shown
Protocol: Three cell lines are used for in vitro experiments, DC-3F, a transformed Chinese hamster lung fibroblast cell line; K-562, a human leukemia cell line; and Lewis Lung Carcinoma, a murine lung carcinoma cell line. DC-3F cells were tested for mycoplasma in January 2011, K-562 cells were tested for mycoplasma in 2008 prior to freezing and thawing just before experiments were performed, and Lewis Lung cells were tested by rapid MAP27 panel (Taconic, Hudson N.Y.) in July 2011 without signs of infection. Cells are maintained in RPMI 1640 culture medium (GIBCO™, Life Technologies, Carlsbad, Calif.) with 10% fetal calf serum (GIBCO™, Life Technologies, Carlsbad, Calif.), penicillin and streptomycin at 37° C. and 5% C02. After harvesting, cells are washed and diluted in HEPES buffer containing 10 mM HEPES (Lonza, Basel, Switzerland), 250 mM sucrose and 1 mM MgCl2 in sterile water. 270 μl cell suspension (6.1×10^6 cells/ml) and 30 μl CaCl2, or in the case of controls, HEPES buffer, are electroporated in 4 mm wide cuvettes with aluminium electrodes (Molecular BioProducts, Inc., San Diego, Calif.). Cooled cells (8° C.) are exposed to 8 pulses of 1.2 kV/cm with pulse duration of 99 μs (DC-3F and K562 cells) or 8 pulses of 1.4 kV/cm with pulse duration of 99 μs (Lewis Lung Carcinoma) using a BTX® T820 square wave electroporator (BTX®, Harvard Apparatus, Holliston, Mass.). The electroporation parameters are chosen after optimization to obtain high permabilisation and cell survival. After 20 min at 37° C. and 5% CO2 cells are diluted in RPMI 1640 culture medium with 10% fetal calf serum and penicillin-streptomycin and seeded in 96-well plates at a concentration of 3.1×10^4 cells/100 μl.
Difference between electroporated and non-electroporated cells in identical buffer is assessed using two-way analysis of variance (ANOVA) with post least-squares-means test with Bonferroni correction for multiple comparisons.

| Compound | effect of calcium electroporation on cell viability, calcium chloride versus calcium glubionate (DC-3F cells) | concentration giving a decrease in viability similar to calcium electroporation [1] |
| --- | --- | --- |
| O.O=C([O-])[C@H](O)[C@@H](O)[C@H](O)[C@H](O)CO.O=C([O-])[C@H](O)[C@@H](O)[C@H](O[C@@H]1O[C@H](CO)[C@H](O)[C@H](O)[C@H]1O)[C@H](O)CO.[Ca+2] [calcium glubionate] | no difference | – |
| bleomycin | – | ≥ 0.1 µM |
